Where two headings read alike, the source gives them in different places.
Tested on: SARS-CoV-2 (WA1)
Test: microbe, parasite or virus in culture
Assay type: cell-based
Details: SARS-CoV-2(WA1) CPE assay, Round 2, concentration range 1000-0.05 nM, Vero E6, read-out: IC50
[1] = Severe acute respiratory syndrome coronavirus 2, Vero C1008, VIRADEM compounds

| SMILES | IC50 (VIRADEM compounds) [µM] | IC50 [1] [µM] |
| --- | --- | --- |
| Cc1ccc(Nc2nc(N3CCOCC3)nc(N(C)c3ccccc3)n2)cc1C [VIRADEM-15168, N-(3,4-Dimethylphenyl)-N^1-methyl-6-morpholin-4-yl-N^1-phenyl-[1,3,5]triazine-2,4-diamine] | 0.18 | – |
| c1ccc(CN2CCN(c3nc(N4CCOCC4)nc(N4CCOCC4)n3)CC2)cc1 [VIRADEM-15199, 2-(4-Benzylpiperazin-1-yl)-4,6-dimorpholin-4-yl-[1,3,5]triazine] | – | > 1 |
| c1cc2c(cc1CNc1nc(N3CCOCC3)nc(N3CCOCC3)n1)OCO2 [VIRADEM-15201, Benzo[1,3]dioxol-5-ylmethyl-(4,6-dimorpholin-4-yl-[1,3,5]triazin-2-yl)-amine] | – | > 1 |
| c1ccc(CNc2nc(N3CCOCC3)nc(N3CCOCC3)n2)cc1 [VIRADEM-15209, Benzyl-(4,6-dimorpholin-4-yl-[1,3,5]triazin-2-yl)-amine] | – | > 1 |
| COc1ccc(Nc2nc(N3CCOCC3)nc(N3CCC(C)CC3)n2)cc1 [VIRADEM-15220, (4-Methoxyphenyl)-[4-(4-methylpiperidin-1-yl)-6-morpholin-4-yl-[1,3,5]triazin-2-yl]amine] | – | > 1 |
| Cc1ccc(Nc2nc(N3CCCCCC3)nc(N3CCOCC3)n2)cc1 [VIRADEM-15229, (4-Azepan-1-yl-6-morpholin-4-yl-[1,3,5]triazin-2-yl)-p-tolyl-amine] | – | 0.85 |
| c1ccc(CCNc2nc(N3CCOCC3)nc(N3CCOCC3)n2)cc1 [VIRADEM-15230, (4,6-Dimorpholin-4-yl-[1,3,5]triazin-2-yl)-phenetylamine] | 0.46 | – |
| Cc1ccc(Nc2nc(N3CCOCC3)nc(N3CCC(C)CC3)n2)cc1C [VIRADEM-15231, (3,4-Dimethylphenyl)-[4-(4-methylpiperidin-1-yl)-6-morpholin-4-yl-[1,3,5]triazin-2-yl]-amine] | – | 0.35 |
| c1coc(CNc2nc(N3CCOCC3)nc(N3CCOCC3)n2)c1 [VIRADEM-15234, (4,6-Dimorpholin-4-yl-[1,3,5]triazin-2-yl)-furan-2-ylmethylamine] | – | > 1 |
| COc1ccc(CCNc2nc(N3CCOCC3)nc(N3CCOCC3)n2)cc1OC [VIRADEM-15243, [2-(3,4-Dimethoxyphenyl)-ethyl]-(4,6-dimorpholin-4-yl-[1,3,5]triazin-2-yl)-amine] | – | > 1 |
| CCc1cccc(Nc2nc(N3CCOCC3)nc(N3CCOCC3)n2)c1 [VIRADEM-15248, (4,6-Dimorpholin-4-yl-[1,3,5]triazin-2-yl)-(3-ethylphenyl)-amine] | – | > 1 |
| COc1ccc(Nc2nc(Nc3cccc4ccccc34)nc(N3CCOCC3)n2)cc1 [VIRADEM-15262, N-(4-Methoxyphenyl)-6-morpholin-4-yl-N^1-naphthalen-[1,3,5]triazine-2,4-diamine] | 0.44 | – |
| COc1ccc(Nc2nc(N3CCOCC3)nc(N3CCCc4ccccc43)n2)cc1 [VIRADEM-15272, [4-(3,4-Dihydro-2H-quinolin-1-yl)-6-morpholin-4-yl-[1,3,5]triazin-2-yl]-(4-methoxyphenyl)-amine] | – | > 1 |
| Cc1ccc(Nc2nc(N3CCOCC3)nc(N3CCCc4ccccc43)n2)cc1C [VIRADEM-15278, [4-(3,4-Dihydro-2-H-quinolin-1-yl)-6-morpholin-4-yl-[1,3,5]triazin-2-yl]-(3,4-dimethylphenyl)-amine] | 0.12 | – |
| Cc1ccc(Nc2nc(Nc3cccc4ccccc34)nc(N3CCOCC3)n2)cc1 [VIRADEM-15279, 6-Morpholin-4-yl-N-naphtalen-1-yl-N^1-p-tolyl-[1,3,5]triazine-2,4-diamine] | 0.08 | – |
| Cc1ccc(S(=O)(=O)NNc2nc(N3CCOCC3)nc(N3CCOCC3)n2)cc1 [VIRADEM-15295, N-(4,6-Dimorpholin-4-yl-[1,3,5]triazin-2-yl)-N^1-tozylhydrazin] | > 1 | – |
| c1ccc2c(c1)CCN2c1nc(N2CCOCC2)nc(N2CCOCC2)n1 [VIRADEM-15355, 1-(4,6-Dimorpholin-4-yl-[1,3,5]triazin-2-yl)-2,3-dihydro-1H-indole] | – | > 1 |

— patent US20260076973A1 (priority 2023, published 2026)
